ChEMBL document CHEMBL1125127 (J Med Chem, 1990)

How the values were obtained:
Canis familiaris [1] = experiment: Concentration at which maximum change in […] was observed from control value in anesthetized dogs; The maximum observed change APD95 from control value and concentration at 30 uM when this occurred; type: functional, Canis lupus familiaris
Canis familiaris [2] = experiment: Concentration that causes a 20% increase in APD95 (action potential duration at 95% repolarization) from control value in anesthetized dogs; type: functional, Canis lupus familiaris
Canis familiaris [3] = experiment: Maximum change in […] from control value in anesthetized dogs; 10 uM.; type: functional, Canis lupus familiaris
Canis familiaris [4] = experiment: Percent change in FRP from control at active dose 10-30 mg/kg administered intraperitoneally in anesthetized dogs; type: functional, Canis lupus familiaris
Canis familiaris [5] = experiment: Percent change in blood pressure (BP) from control at active dose 10-30 mg/kg administered intraperitoneally in anesthetized dogs; type: functional, Canis lupus familiaris
[6] = Ratio of number of active animals to number of treated at dose 10-30 mg/kg administered intraperitoneally in anesthetized dogs; No of animals tested=3; type: functional
[7] = target: Beta adrenergic receptor (Canis familiaris)
Canis familiaris [8] = experiment: Percent change in heart rate (HR) from control at active dose 10-30 mg/kg administered intraduodenally
[9] = Ratio of number of active animals to number of treated animals; No of animals tested=2; type: functional
Canis familiaris [10] = experiment: Percent change in FRP from control at active dose 10 mg/kg administered intraperitoneally in anesthetized dogs; type: functional, Canis lupus familiaris; settings: route intraperitoneal
Canis familiaris [11] = experiment: Concentration at which maximum change in […] was observed from control value in anesthetized dogs; The maximum observed change APD95 from control value and concentration at 10 uM when this occurred; type: functional, Canis lupus familiaris
Canis familiaris [12] = experiment: Percent change in blood pressure (BP) from control at active dose 10 mg/kg administered intraperitoneally in anesthetized dogs; type: functional, Canis lupus familiaris; settings: route intraperitoneal
[13] = Ratio of number of active animals to number of treated at dose 10 mg/kg administered intraperitoneally in anesthetized dogs; No of animals tested=2; type: functional; settings: route intraperitoneal
Canis familiaris [14] = experiment: Percent change in heart rate (HR) from control at active dose 10 mg/kg administered intraduodenally; settings: route intraduodenal
[15] = target: Beta-1 adrenergic receptor (Canis familiaris)
[16] = target: Beta-2 adrenergic receptor (Canis lupus familiaris, UniProt P54833)
Chain of Beta-2 adrenergic receptor (P54833 whole entry): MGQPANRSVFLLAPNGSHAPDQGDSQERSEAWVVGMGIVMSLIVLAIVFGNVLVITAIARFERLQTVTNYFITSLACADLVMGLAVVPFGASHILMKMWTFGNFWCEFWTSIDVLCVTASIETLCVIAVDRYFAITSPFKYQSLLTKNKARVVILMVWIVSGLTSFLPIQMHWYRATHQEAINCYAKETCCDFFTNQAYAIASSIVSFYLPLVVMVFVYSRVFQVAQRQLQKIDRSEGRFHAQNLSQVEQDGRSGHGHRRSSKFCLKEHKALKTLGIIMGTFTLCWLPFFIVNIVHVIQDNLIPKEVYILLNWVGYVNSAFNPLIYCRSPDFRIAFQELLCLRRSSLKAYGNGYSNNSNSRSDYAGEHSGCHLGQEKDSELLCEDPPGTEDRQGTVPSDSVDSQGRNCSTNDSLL
Description: Tested for Beta-2 adrenergic receptor selectivity in canine lung tissue in anesthetized dogs

[17] = Ratio of number of active animals to number of treated in anesthetized dogs; No of animals tested=2; type: functional
[18] = Ratio of number of active animals to number of treated at dose 10-30 mg/kg administered intraperitoneally in anesthetized dogs; No of animals tested=2; type: functional
[19] = target: Adrenergic receptor beta (Canis lupus familiaris); experiment: Tested for beta-receptor binding inhibition from canine ventricular tissue, using [3H]dihydroalprenolol as the radioligand in anesthetized dogs
Canis familiaris [20] = experiment: Concentration at which maximum change in […] was observed from control value in anesthetized dogs; The maximum observed change APD95 from control value and concentration at 1 uM when this occurred; type: functional, Canis lupus familiaris
Canis familiaris [21] = experiment: Percent change in FRP from control at active dose 30 mg/kg administered intraperitoneally in anesthetized dogs; type: functional, Canis lupus familiaris; settings: route intraperitoneal
Canis familiaris [22] = experiment: Percent change in blood pressure (BP) from control at active dose 30 mg/kg administered intraperitoneally in anesthetized dogs; type: functional, Canis lupus familiaris; settings: route intraperitoneal
Canis familiaris [23] = experiment: Percent change in heart rate (HR) from control at active dose 30 mg/kg administered intraduodenally; settings: route intraduodenal
[24] = Ratio of number of active animals to number of treated at dose 30 mg/kg administered intraperitoneally in anesthetized dogs; No of animals tested=4; settings: route intraperitoneal

Row | Compound | IC50 [7] [µM] | C20 (Canis familiaris [2]) [µM] | Max delta (Canis familiaris [3]) [%] | further results
1 | CS(=O)(=O)Nc1ccc(OC[C@H](O)CNCCOc2ccc(-n3ccnc3)cc2)cc1 | – | – | – | Max delta (Canis familiaris [1]): 73%
2 | CS(=O)(=O)Nc1ccc(N2CCN(CC(O)COc3cccc4c3CCCC4=O)CC2)cc1 (centres undefined) | 8.4 | 1.9 | – | Change (Canis familiaris [10]): 12%; Max delta (Canis familiaris [11]): 48%; Change (Canis familiaris [12]): 18%; Ratio [13]: 1; Change (Canis familiaris [14]): -1%
3 | CS(=O)(=O)Nc1ccc(C(=O)N2CCN(CC(O)COc3cccc4ccccc34)CC2)cc1 (centres undefined) | 30.9 | 0.5 | 55 | Change (Canis familiaris [4]): 19%; Change (Canis familiaris [5]): 5%; No. effective [18]: 2; Change (Canis familiaris [8]): -25%
4 | COc1ccccc1C(O)CNCCOc1ccc(-n2ccnc2)cc1 (centres undefined) | – | – | – | C20 APD95 (Canis familiaris [2]): 10.4 µM; Max delta (Canis familiaris [1]): 33%; IC50 [19]: 3.7 µM
5 | Cc1ccccc1OCC(O)CNCc1ccc(-n2ccnc2)cc1 (centres undefined) | 0.78 | 0.3 | 65 | IC50 [15]: 0.8 µM; IC50 [16]: 1.2 µM
6 | CS(=O)(=O)Nc1ccc(N2CCN(CC(O)COc3ccccc3)CC2)cc1 (centres undefined) | 15.8 | 2.7 | – | Max delta (Canis familiaris [20]): 52%; Change (Canis familiaris [21]): 14%; Change (Canis familiaris [22]): -17%; Change (Canis familiaris [23]): -7%; Ratio [24]: 1
7 | Cc1cccc(OCC(O)CNCc2ccc(NS(C)(=O)=O)cc2)c1 (centres undefined) | 0.99 | <1 | 44 | IC50 [15]: 2.4 µM; IC50 [16]: 4.4 µM
8 | CS(=O)(=O)Nc1ccc(C(=O)N2CCN(CC(O)COc3ccccc3)CC2)cc1 (centres undefined) | 12.2 | <1 | 88 | –

Now from value to molecule, other results behind:

Row | IC50 [7] [µM] | Compound | C20 (Canis familiaris [2]) [µM] | Max delta (Canis familiaris [3]) [%] | further results
9 | 109 | COCCc1ccc(OCC(O)CN2CCN(c3ccc(NS(C)(=O)=O)cc3)CC2)cc1 (centres undefined) | 3.2 | 76 | Change (Canis familiaris [4]): 15%; Change (Canis familiaris [5]): 9%; No. effective [6]: 3; Change (Canis familiaris [8]): -12%
10 | 43.8 | COc1ccc(OCC(O)CNCCNC(=O)c2ccc(NS(C)(=O)=O)cc2)cc1 (centres undefined) | 0.6 | 86 | Ratio [9]: 0
11 | 12.4 | COCCc1ccc(OCC(O)CNCCNC(=O)c2ccc(-n3ccnc3)cc2)cc1 (centres undefined) | <1.4 | 70 | –
12 | 25.8 | COCCc1ccc(OCC(O)CNCc2ccc(NS(C)(=O)=O)cc2)cc1 (centres undefined) | 0.5 | 57 | IC50 [15]: 7.3 µM; IC50 [16]: 46 µM
13 | 2.9 | CS(=O)(=O)Nc1ccc(CNCC(O)COc2ccccc2)cc1 (centres undefined) | <1 | 40 | Ratio [17]: 0
14 | 360 | COCCc1ccc(OCC(O)CN2CCN(C(=O)c3ccc(NS(C)(=O)=O)cc3)CC2)cc1 (centres undefined) | 7.7 | 56 | –
